Our source for the RP-LC retention time values is the METLIN SMRT retention time set (Domingo-Almenara et al. 2019).

Each structure is given as a SMILES string.

The data set in a line: gradient 5% acetonitrile 3 min, to 50% in 2 min, to 85% in 15 min, held 3 min, 100 µL/min. Conditions: column: Zorbax Extend-C18 2.1 x 50 mm; eluents: water / acetonitrile, 0.1% formic acid. Summed up:
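Over 3 months, pure standards in mixtures of ~100 molecules were run by HPLC coupled to a quadrupole time-of-flight mass spectrometer in positive and negative ionization mode. The column was a Zorbax Extend-C18 (2.1 × 50 mm, 1.8 μm) at 100 μL/min, eluted with water and acetonitrile each holding 0.1% formic acid, with 40 μL dead and 900 μL dwell volumes. Retention time was determined from adduct peaks chosen by software and checked manually.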
The compound `Cc1nc2nc(-c3ccc(C(C)(C)C)cc3)nn2c(C)c1CC(=O)N(C)Cc1ccccc1` showed an RP-LC retention time of 1110 s.

Regarding `Cc1cccc(OCC(=O)N(Cc2ccc(N(C)C)cc2)C2CCS(=O)(=O)C2)c1C` (centres undefined), the RP-LC retention time stood at 798 s.

On to `CN1CCC2(CC1)CN(C(=O)CCc1nc3ccccc3s1)Cc1ccccc1O2`, for which the RP-LC retention time amounted to 671 s.

Consider `COc1ncccc1CNC(=O)c1cnn2cccnc12`, for which the RP-LC retention time is 638 s.

`O=C(c1ccc(-c2cccs2)nc1)N1CCN(c2ccccn2)CC1` came in with an RP-LC retention time of 604 s.

`COCCNC(=O)C1CCN(S(=O)(=O)c2cc(-c3noc(C)n3)cs2)CC1`: the RP-LC retention time amounted to 679 s.

`CC(NC(=O)C1=CCN(Cc2ccccc2)CC1)c1ccccc1` (centres undefined) came in with an RP-LC retention time of 639 s.

Compound `CC(C)NC(=O)N1CCCC(c2cccc(C(=O)NCCCN3CCOCC3)c2)C1` (centres undefined) gave an RP-LC retention time of 598 s.

Regarding `O=C(NCCn1nnc2cc(C(=O)N3CCCC3)ccc21)Nc1ccc(F)c(Cl)c1`, the RP-LC retention time was determined as 704 s.

In turn, `CCn1c(=O)c2ccnn2c2ccc(C(=O)NC3CCCC3)cc21` returned an RP-LC retention time of 587 s.

`COc1ccc(NC(=O)CSc2cc(N3CCN(c4ccccc4OC)CC3)ncn2)c(OC)c1`: the RP-LC retention time stood at 791 s.

Turning to `CC(Cc1ccco1)NC(=O)C1CC(=O)N(c2ccc(F)cc2)C1` (centres undefined), the RP-LC retention time amounted to 714 s.

In turn, `COc1cc(-c2nc(Cn3ccn4nc(-c5ccc(F)cc5)cc4c3=O)c(C)o2)cc(OC)c1OC` came in with an RP-LC retention time of 996 s.

Compound `COc1ccc(OC)c(NC(=O)NCCc2cn(C)c3ncccc23)c1` returned an RP-LC retention time of 686 s.

Take `O=C(Cc1ccc(F)cc1)Nc1nnc(C2CC(=O)N(c3ccccc3)C2)o1` (centres undefined): the RP-LC retention time was found to be 716 s.

`CCc1oc2cc(S(=O)(=O)Nc3ccc(S(=O)(=O)Nc4nccs4)cc3)ccc2c1C(=O)c1cc(Br)c(O)c(Br)c1` registered an RP-LC retention time of 895 s.

In turn, `CCCCN(C)C(=O)Cn1nc(C)c2sc(-c3ccccc3)nc2c1=O` yielded an RP-LC retention time of 865 s.

Compound `COCCn1c(C)c(C)c(S(=O)(=O)c2ccc(C)cc2)c1NC(=O)C1CCCO1` (centres undefined) had an RP-LC retention time of 859 s.

The compound `CCn1nc(CNC(=O)c2ccc(Br)o2)c2ccccc21` returned an RP-LC retention time of 881 s.

Compound `Cc1cc(C(=O)N2CC(C(=O)Nc3cccc(-c4csc(C)n4)c3)C2)no1` gave an RP-LC retention time of 721 s.

As to `CCCNC(=O)CC1CCN(C(=O)c2[nH]c(C)cc2C)CC1`, the RP-LC retention time was 661 s.

In the case of `COc1cccc(CNC2=NCCNC23CCN(S(=O)(=O)c2ccc(C(C)(C)C)cc2)CC3)c1`, the RP-LC retention time worked out at 837 s.

Turning to `CCCCCn1c(=O)c2ccccc2n(Cc2nc(-c3ccc(OCC)c(OC)c3)no2)c1=O`, the RP-LC retention time came out at 1230 s.

`O=C(c1ccc(Cl)cc1)N1CCC2(C1)C(=O)Nc1ccccc12` (centres undefined) gave an RP-LC retention time of 765 s.

`COc1ccc(S(=O)(=O)NCCS(=O)(=O)N2CCN(c3ccccc3)CC2)cc1` came in with an RP-LC retention time of 849 s.

`Cc1cc(N2CCN(C(=O)Cc3cccc(F)c3)CC2)nc2nncn12`: the RP-LC retention time was found to be 593 s.

`COc1cc(NC(=O)N2CCC(N3CCN(Cc4ccc(C)cc4)C(=O)C3=O)CC2)cc(OC)c1` showed an RP-LC retention time of 758 s.

`COc1ccccc1NC(=O)Cc1csc2nc(-c3ccc(OC)c(OC)c3)cn12` gave an RP-LC retention time of 734 s.

Compound `Cc1ccc(CNC(=O)C2(C)CCN(C(=O)Nc3ccc(C)c(Cl)c3)CC2)cc1` gave an RP-LC retention time of 972 s.

Consider `Cc1nc(-c2cc(S(=O)(=O)NCC(=O)N3CCN(c4ccccc4)CC3)c(C)s2)no1`, for which the RP-LC retention time came out at 896 s.

`CC(=O)N1CCC2(CC1)NC(=O)c1ccccc1O2` came in with an RP-LC retention time of 633 s.

For `CC(=O)c1ccc(NC(=O)CN2C(=O)CC(c3ccccc3)=Nc3cccnc32)cc1`, the RP-LC retention time came to 780 s.

`Cc1cccc(NS(=O)(=O)c2cn(CC(C)C)c3ncccc23)c1` showed an RP-LC retention time of 960 s.

`CN(C(=O)c1cc(-c2cccs2)n(C2CCS(=O)(=O)C2)n1)C1CCS(=O)(=O)C1` (centres undefined): the RP-LC retention time came to 662 s.

The compound `COCCc1noc([C@@H]2CN(Cc3cccc(Cl)c3)C[C@H]2CO)n1` registered an RP-LC retention time of 609 s.

For the compound `O=C(NCc1ccc2c(c1)CCCN2C(=O)C1CC1)c1ccc(Br)o1`, the RP-LC retention time came out at 840 s.

`O=C(CN1CCc2nc(NC(=O)C3CC3)sc2C1)Nc1ccccc1C(F)(F)F` gave an RP-LC retention time of 620 s.

Turning to `O=C(NCc1csc(C2CCN(S(=O)(=O)c3ccccc3F)CC2)n1)C1CCC1`, the RP-LC retention time turned out to be 811 s.

For the compound `NC(=O)C1CCN(C2CC(=O)N(c3cccc(F)c3)C2=O)CC1` (centres undefined), the RP-LC retention time amounted to 582 s.

In turn, `Cc1ccc2c(Nc3ccc(CC(=O)O)cc3)c(C(=O)N3CCCCCC3)cnc2n1` showed an RP-LC retention time of 595 s.

Compound `COCCNC(=O)C(=O)NCCc1cccc(OC)c1` gave an RP-LC retention time of 650 s.

`CC(C)N1C(=O)c2cccnc2Sc2cc(NC(=O)c3ccc(F)c(F)c3)ccc21` showed an RP-LC retention time of 925 s.

With `CCCN1C(=O)C2CCC(=O)N2c2ccc(C(=O)NC(C)C)cc21` (centres undefined), the RP-LC retention time is 669 s.

`CCN(CC)S(=O)(=O)c1cc(-c2nnc(-c3ccccc3OC)o2)ccc1Cl` displayed an RP-LC retention time of 1090 s.

For `CCOC(=O)Nc1cccc(C(F)(F)F)c1`, the RP-LC retention time was 890 s.

With `O=C(Nc1ccc2c(c1)CN(C(=O)c1cccs1)CC2)c1ccccc1C(F)(F)F`, the RP-LC retention time amounted to 821 s.

Compound `O=C(NCc1ccnc(N2CCSCC2)c1)Nc1ccccc1Cl` had an RP-LC retention time of 643 s.

Compound `O=C(CCC(=O)N1c2ccccc2NC2=C(C(=O)CCC2)C1c1ccco1)Nc1ccccc1` (centres undefined) gave an RP-LC retention time of 744 s.

Consider `Cc1nc(-c2ccc3c(c2)n(CC(=O)NC2CCC(C)CC2)c(=O)n3C(C)C)no1` (centres undefined), for which the RP-LC retention time came out at 897 s.

In turn, `COc1ccccc1CNC(=O)[C@@H]1[C@H](c2cc(OC)c(OC)c(OC)c2)c2cc3c(cc2[C@H](O)[C@H]1CO)OCO3` gave an RP-LC retention time of 713 s.

In turn, `CN(C)CCNCc1ccc(-c2cccc(Cl)c2)o1` came in with an RP-LC retention time of 570 s.

Consider `COc1cc(O)c(C(=O)/C=C/c2ccccc2)c(OC)c1`, for which the RP-LC retention time came to 1220 s.

In turn, `COCCN1C(=O)c2ccccc2C(C(=O)NCCCc2ccccc2)C12CCCC2` (centres undefined) had an RP-LC retention time of 944 s.

As for `CC(C)CNC(=O)CCC1CCN(c2cc(NC3CC3)ncn2)CC1`, the RP-LC retention time came out at 615 s.

The compound `CCC(Oc1ccc(=O)n(-c2ccc(F)cc2)n1)C(=O)Nc1ccc(C(C)=O)cc1` (centres undefined) yielded an RP-LC retention time of 764 s.

For `CC(C)(C)C(O)CCNC(=O)C(=O)NC1CC1` (centres undefined), the RP-LC retention time was determined as 622 s.

For `CCC(C)C(NC(=O)c1ccc(Cl)cc1)C(=O)Nc1nc2ccccc2[nH]1` (centres undefined), the RP-LC retention time was determined as 793 s.

In the case of `CC(=O)c1ccc(NC(=O)c2cn(C)nc2C)cc1`, the RP-LC retention time turned out to be 630 s.

For the compound `CCCN1CCn2cc(S(=O)(=O)NCc3ccc(OC)cc3)cc2C1=O`, the RP-LC retention time amounted to 990 s.

For `CC(C)NC(=O)C1CCCN(c2cc(=O)n(C)c(=O)n2C)C1` (centres undefined), the RP-LC retention time was determined as 595 s.

In turn, `O=C(NC1CCN(Cc2ccccc2)CC1)C1CCN(c2ncnc3c2oc2ccccc23)CC1` showed an RP-LC retention time of 603 s.

The compound `COc1ccc(CCNc2nc(-c3ccccc3)cs2)cc1OC` returned an RP-LC retention time of 830 s.

`O=C(Nc1ccc2c(c1)N(C(=O)c1ccco1)CC2)c1ccc2c(c1)OCO2` registered an RP-LC retention time of 770 s.

In turn, `CCc1ccccc1NC(=O)Cn1c(=O)c(CCC(=O)NCC(C)C)nc2ccccc21` displayed an RP-LC retention time of 854 s.

In turn, `CCn1cc(CCNS(=O)(=O)c2cccc(C#N)c2)c2cccnc21` gave an RP-LC retention time of 733 s.

The compound `O=C(NCc1ccc2c(c1)OCO2)C1CCN(C(=O)c2ccc(Cl)cc2)CC1` came in with an RP-LC retention time of 766 s.

As to `Cc1ccn2c(Nc3ccc4c(c3)OCCO4)c(-c3ccccc3O)nc2c1`, the RP-LC retention time came out at 670 s.

Compound `CCOC(=O)c1c(S(=O)(=O)N2CCC(C(=O)NC3CCCC3)CC2)c(C)n(C)c1C` gave an RP-LC retention time of 766 s.

The compound `CN1C(=O)c2cc(C(=O)NCCN3CCCC3)nn2CC1(C)C(=O)NCc1ccc(F)cc1` (centres undefined) gave an RP-LC retention time of 580 s.

Turning to `Cc1ccc(C)c(-c2coc(-c3ccc(N)cc3)n2)c1`, the RP-LC retention time was found to be 1060 s.

As for `CC(C)C(=O)Nc1ccc(C2(C(=O)Nc3ccc(N4CCOCC4)cc3)CCCCC2)cc1`, the RP-LC retention time is 888 s.

Compound `Cc1ccc(NC(=O)CCC(=O)N2CCSc3nc(C)cc(C)c32)cc1` returned an RP-LC retention time of 717 s.

In turn, `Cn1c(=O)oc2cc(-c3noc(CNC(=O)C(c4ccccc4)c4ccccc4)n3)ccc21` gave an RP-LC retention time of 928 s.

Consider `O=S(=O)(c1ccc2nncn2c1)N(Cc1ccccc1F)c1ccc2c(c1)OCCO2`, for which the RP-LC retention time came out at 745 s.

Compound `O=C(CSc1nnc2c3sc(N4CCCC4)nc3ncn12)N1CCN(c2ccc(F)cc2)CC1` came in with an RP-LC retention time of 834 s.

As to `CCc1nc(-c2cc(S(=O)(=O)N3CCC(C(=O)NCc4ccco4)CC3)c(C)s2)no1`, the RP-LC retention time was 932 s.

`O=C(NCc1ccco1)C1CCN(c2nnc3ccc(C(F)(F)F)cn23)CC1` returned an RP-LC retention time of 715 s.

Turning to `CCOC(=O)c1ccc(NC(=O)Cn2nc3c(N4CCSCC4)nccn3c2=O)cc1`, the RP-LC retention time worked out at 828 s.

For the compound `CC(C)(C)CC(=O)N1CCCC(CCc2nnc(C3CCOCC3)o2)C1` (centres undefined), the RP-LC retention time came out at 758 s.
